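Abbreviation: GI50, concentration required for 50% inhibition of growth. TGI: concentration producing complete growth inhibition.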
Tests used:
Test in all cases: NCI anticancer screen, dose series, 384-well format
NCI/ADR-RES ovarian = tested on: NCI/ADR-RES ovarian
A549 NSCLC = tested on: A549 NSCLC
HL-60(TB) leukemia = tested on: HL-60(TB) leukemia
LOX IMVI melanoma = tested on: LOX IMVI melanoma
SK-MEL-2 melanoma = tested on: SK-MEL-2 melanoma
SF-539 CNS = tested on: SF-539 CNS
SNB-75 CNS = tested on: SNB-75 CNS
MCF7 breast = tested on: MCF7 breast
RXF 393 renal = tested on: RXF 393 renal
T-47D breast = tested on: T-47D breast
RPMI-8226 leukemia = tested on: RPMI-8226 leukemia
SK-MEL-28 melanoma = tested on: SK-MEL-28 melanoma
KM12 colon = tested on: KM12 colon
SK-OV-3 ovarian = tested on: SK-OV-3 ovarian
TK-10 renal = tested on: TK-10 renal
NCI-H460 NSCLC = tested on: NCI-H460 NSCLC
HT29 colon = tested on: HT29 colon
MDA-MB-435 melanoma = tested on: MDA-MB-435 melanoma
BT-549 breast = tested on: BT-549 breast
SK-MEL-5 melanoma = tested on: SK-MEL-5 melanoma
OVCAR-4 ovarian = tested on: OVCAR-4 ovarian
NCI-H23 lung = tested on: NCI-H23 lung
MDA-MB-468 breast = tested on: MDA-MB-468 breast
EKVX NSCLC = tested on: EKVX NSCLC
NCI-H322M lung = tested on: NCI-H322M lung
UACC-257 melanoma = tested on: UACC-257 melanoma
HCT-15 colon = tested on: HCT-15 colon
A498 renal = tested on: A498 renal
UACC-62 melanoma = tested on: UACC-62 melanoma
CCRF-CEM leukemia = tested on: CCRF-CEM leukemia
OVCAR-8 ovarian = tested on: OVCAR-8 ovarian
CAKI-1 renal = tested on: CAKI-1 renal
HCC-2998 colon = tested on: HCC-2998 colon
ACHN renal = tested on: ACHN renal
SNB-19 CNS = tested on: SNB-19 CNS
SF-268 CNS = tested on: SF-268 CNS
HOP-62 NSCLC = tested on: HOP-62 NSCLC
HOP-92 NSCLC = tested on: HOP-92 NSCLC
OVCAR-3 ovarian = tested on: OVCAR-3 ovarian
COLO 205 colon = tested on: COLO 205 colon
M14 melanoma = tested on: M14 melanoma
MDA-MB-231 breast = tested on: MDA-MB-231 breast
MOLT-4 leukemia = tested on: MOLT-4 leukemia
SN12C renal = tested on: SN12C renal
NCI-H522 lung = tested on: NCI-H522 lung
DU-145 prostate = tested on: DU-145 prostate
U251 glioblastoma = tested on: U251 glioblastoma
HS 578T breast = tested on: HS 578T breast
PC-3 prostate = tested on: PC-3 prostate
MALME-3M melanoma = tested on: MALME-3M melanoma
SR leukemia = tested on: SR leukemia
786-0 renal = tested on: 786-0 renal

CCOC(=O)c1c(NN2CCN(CC(F)(F)F)CC2)oc(/C=C2\C=Nc3ncccc32)c1O
GI50 (NCI/ADR-RES ovarian): > 100 µM
TGI (NCI/ADR-RES ovarian): > 100 µM
GI50 (A549 NSCLC): 5.31 µM
TGI (A549 NSCLC): > 100 µM
GI50 (HL-60(TB) leukemia): 1.18 µM
TGI (HL-60(TB) leukemia): 2.41 µM
GI50 (LOX IMVI melanoma): 3.14 µM
TGI (LOX IMVI melanoma): 9.61 µM
GI50 (SK-MEL-2 melanoma): 2.62 µM
TGI (SK-MEL-2 melanoma): 4.86 µM
GI50 (SF-539 CNS): 2.84 µM
TGI (SF-539 CNS): 9.8 µM
GI50 (SNB-75 CNS): 6.66 µM
TGI (SNB-75 CNS): 18.9 µM
GI50 (MCF7 breast): 3.69 µM
TGI (MCF7 breast): 10.2 µM
GI50 (RXF 393 renal): 1.94 µM
TGI (RXF 393 renal): 3.91 µM
GI50 (T-47D breast): > 100 µM
TGI (T-47D breast): > 100 µM
GI50 (RPMI-8226 leukemia): 1.96 µM
TGI (RPMI-8226 leukemia): 4.22 µM
GI50 (SK-MEL-28 melanoma): 5.23 µM
TGI (SK-MEL-28 melanoma): 16.7 µM
GI50 (KM12 colon): 3.28 µM
TGI (KM12 colon): 8.02 µM
GI50 (SK-OV-3 ovarian): 2.72 µM
TGI (SK-OV-3 ovarian): > 100 µM
GI50 (TK-10 renal): > 100 µM
TGI (TK-10 renal): > 100 µM
GI50 (NCI-H460 NSCLC): 2.23 µM
TGI (NCI-H460 NSCLC): 4.4 µM
GI50 (HT29 colon): 2.5 µM
TGI (HT29 colon): > 100 µM
GI50 (MDA-MB-435 melanoma): 10.8 µM
TGI (MDA-MB-435 melanoma): 29.4 µM
GI50 (BT-549 breast): 2.44 µM
TGI (BT-549 breast): 5.08 µM
GI50 (SK-MEL-5 melanoma): 2.67 µM
TGI (SK-MEL-5 melanoma): 14.9 µM
GI50 (OVCAR-4 ovarian): 96.1 µM
TGI (OVCAR-4 ovarian): > 100 µM
GI50 (NCI-H23 lung): 4.83 µM
TGI (NCI-H23 lung): 18.5 µM
GI50 (MDA-MB-468 breast): 3.2 µM
TGI (MDA-MB-468 breast): 9.71 µM
GI50 (EKVX NSCLC): 7.51 µM
TGI (EKVX NSCLC): > 100 µM
GI50 (NCI-H322M lung): 4.05 µM
TGI (NCI-H322M lung): > 100 µM
GI50 (UACC-257 melanoma): 17.4 µM
TGI (UACC-257 melanoma): 36.2 µM
GI50 (HCT-15 colon): 5.2 µM
TGI (HCT-15 colon): > 100 µM
GI50 (A498 renal): 2.75 µM
TGI (A498 renal): > 100 µM
GI50 (UACC-62 melanoma): 2.12 µM
TGI (UACC-62 melanoma): 3.96 µM
GI50 (CCRF-CEM leukemia): 0.911 µM
TGI (CCRF-CEM leukemia): 2.31 µM
GI50 (OVCAR-8 ovarian): 5.48 µM
TGI (OVCAR-8 ovarian): > 100 µM
GI50 (CAKI-1 renal): 3.83 µM
TGI (CAKI-1 renal): > 100 µM
GI50 (HCC-2998 colon): 1.61 µM
TGI (HCC-2998 colon): 6.01 µM
GI50 (ACHN renal): 5.86 µM
TGI (ACHN renal): > 100 µM
GI50 (SNB-19 CNS): 8.03 µM
TGI (SNB-19 CNS): > 100 µM
GI50 (SF-268 CNS): 4.06 µM
TGI (SF-268 CNS): 11.6 µM
GI50 (HOP-62 NSCLC): 2.86 µM
TGI (HOP-62 NSCLC): 9.4 µM
GI50 (HOP-92 NSCLC): > 100 µM
TGI (HOP-92 NSCLC): > 100 µM
GI50 (OVCAR-3 ovarian): 2.82 µM
TGI (OVCAR-3 ovarian): > 100 µM
GI50 (COLO 205 colon): 0.373 µM
TGI (COLO 205 colon): 3.37 µM
GI50 (M14 melanoma): 3.36 µM
TGI (M14 melanoma): 10.5 µM
GI50 (MDA-MB-231 breast): 5.8 µM
TGI (MDA-MB-231 breast): > 100 µM
GI50 (MOLT-4 leukemia): 1.88 µM
TGI (MOLT-4 leukemia): 3.37 µM
GI50 (SN12C renal): 5.42 µM
TGI (SN12C renal): > 100 µM
GI50 (NCI-H522 lung): 1.14 µM
TGI (NCI-H522 lung): > 100 µM
GI50 (DU-145 prostate): 3.08 µM
TGI (DU-145 prostate): > 100 µM
GI50 (U251 glioblastoma): 2.76 µM
TGI (U251 glioblastoma): > 100 µM
GI50 (HS 578T breast): 1.55 µM
TGI (HS 578T breast): 3.21 µM
GI50 (PC-3 prostate): 3.64 µM
TGI (PC-3 prostate): > 100 µM
GI50 (MALME-3M melanoma): 3.05 µM
TGI (MALME-3M melanoma): 9.54 µM
GI50 (SR leukemia): 0.222 µM
TGI (SR leukemia): 0.488 µM
GI50 (786-0 renal): 3.39 µM
TGI (786-0 renal): 8.44 µM
